In US7557088B2, “Methods and compositions for treating conditions” (NeoPro Labs, LLC, priority 2006, dated 2009):
Several values for one entry are separate records, joined by “and”; a condition that tells them apart may be missing. Equal values may be shown once. Residues, ends and D or L forms follow the SMILES beside them. No end group written: not given here.

What was measured:
[1] = test system: post-surgical pain in rats; test: oral administration, von Frey withdrawal response after plantar incision; assay type: in vivo; details: for Withdrawal Response Post-Dose / Post-Dose change of pain threshold (arrow): morphine sulfate 3.7 mg/kg; for Withdrawal Response Post-Dose: peptides 100 mg/kg; for Withdrawal Response Post-Surgery: 150 min after surgery, before dosing; for Withdrawal Response Pre-Surgery: baseline 15 min pre-surgery; for Post-Dose change of pain threshold (arrow): peptides 100 mg/kg oral; for effect when administered with aspirin / effect when administered with Naloxone / effect on pain threshold: oral; for effect when administered with aspirin: ASA 1 mg/kg co-administered (Groups 4, 6, 9); for effect when administered with Naloxone: Naloxone 2 mg/kg co-administered (Groups 3, 5, 8); for effect on pain threshold: with 0.9% saline as Treatment 1 (Groups 2, 7, 10)
Source text: Table VI below illustrates results from the oral administration of SEQ ID NO: 1 and SEQ ID NO: 153 and the effects of Naloxone and aspirin on their ability to decrease the pain threshold.
In this experiment animals were weighed and placed in the group numbers designated on the left hand column. Each group is composed of 10 rats. Animals were anesthetized with 1.8 to 4% isofluorane (delivered via a nose cone) and each received an intramuscular injection of penicillin (30,000 IU) in the triceps muscle after preparation of the foot with betadine and alcohol (SOPs VET-1 and VET-8). A 1 cm long incision of skin and fascia was made in the plantar aspect (heel, midfoot or distal pad area) of the right hind paw. No underlying muscle was incised. After hemostasis with gentle pressure, the incision was closed with one or two sutures (5-0 silk/nylon ophthalmic suture on a taper TF needle or equivalent). The wound site was covered with a mixture of polymixin B, neomycin, and bacitracin ointment. After surgery, rats were allowed to recover in their cages until behavioral testing. Prior to surgery, rats were placed individually on an elevated wire mesh floor covered with a clear plastic cage top and allowed to acclimate. Baseline pain behavior was measured as follows: Withdrawal responses to mechanical stimulation were determined using von Frey filaments applied from underneath the cage through openings (12×12 mm in the plastic mesh floor to an area adjacent to the intended incision). Each von Frey filament (Target force of 0.008 g to 300 g) was applied once starting with 0.008 g filament and continuing until a withdrawal response occurred or 300 g force was reached. The median force producing a response, determined from three tests given over a 10-min period was considered the withdrawal threshold. Rats were tested for responses 15 minutes pre-surgery, 150 minutes after surgery, and 20 minutes after treatment. Oral treatments 1 and 2 were co-administered 180 minutes after surgery. The test article/vehicle administration and pain measurements were as per Table below.
As illustrated by Table VI, SEQ ID NOs: 1 and 153 attenuate sensitization to von Frey mechanical stimuli after oral application. The response to the von Frey monofilament is in gram. Arrow up (1) indicates an increase in the pain threshold and arrow down (1) indicates a decrease in the threshold. Zero indicates no change.

[2] = feeding behavior of rats exposed to high levels of the peptide; assay type: in vivo; details: at least 3 days
Source text: Pain is basically managed by two classes of drugs. […] The peptide has no anti-inflammatory properties and this differentiates it pharmacologically from analgesics in the NSAID's.

[3] = solubility of test article in 0.9% saline; assay type: physicochemical; details: 100 mg/mL: 1.4 mL of saline added to 141.5 mg, room temperature
Method: The test article was SEQ ID NO: 1, a white powder, which was delivered in 0.9% saline. The test article formulations were prepared on the day of study and kept at room temperature until dosing. 100 mg/kg at 1 mL/kg=100 mg/mL 1.4 mL of saline added to 141.5 mg of test article, soluble.

[4] = test system: Pseudomonas syringae pv tomato, DC3000; test: systemic resistance of Arabidopsis plants to a virulent bacterial pathogen; assay type: in vivo, Arabidopsis ecotype Columbia (Col-0); details: 20 μl salicylic acid 1 mM and 20 μl SEQ ID NO: 15 applied to the leaves
Method: Seeds of Arabidopsis ecotype Columbia (Col-0) were planted in potting soil. Plants were cultivated in a growth chamber with 10-h d (200 μmol m^−2s^−1 at 22° C.) and 14-h night (18° C.) cycles and 80% RH. Once a week plants were supplied with water and modified one-half strength Hoagland nutrient solution: 2 mM KNO 5 mM Ca(NO3)2 and trace elements, pH 7.
A virulent plant pathogen, Pst Pseudomonas syringae pv tomato, DC3000 was grown at 28° C. on King's medium B containing 40 mg/L tetracycline. Plants were inoculated with 1×10^7 cfu/ml of the pathogen in 0.01% Silwet L77 (v/v) (a surfactant) and distilled water 5 weeks after sowing. The bacterial suspension or a control solution (0.01% Silwet L77 in water) was then sprayed on the plant once.
Disease symptoms in Arabidopsis are water-soaked, spreading lesions, sometimes surrounded by chlorotic margin that eventually lead to yield loss and plant death.
To test the efficacy of SEQ ID NO: 15, some healthy and some disease plants were sprayed with salicylic acid in 0.01%. Silwet L77; some healthy and some disease plants were sprayed with SEQ ID NO: 15 in 0.01%. Silwet L77, and some healthy and some disease plants were sprayed with salicylic acid in combination with SEQ ID NO: 15 in 0.01%. Silwet L77. A control group of some healthy and some disease plants were sprayed with water in 0.01%. Silwet L77. […]

[5] = test system: Sauromatum guttatum appendix; test: heat production by Sauromatum guttatum appendix sections treated with 2,6-dihydroxybenzoic acid (2,6-DHBA); details: second experiment, application up to 50 μM, data not shown
Method: In one example, using Sauromatum guttatum as the experimental module, on the day of inflorescence-opening, the Sauromatum appendix (a 20-40 cm-long, slender organ) becomes warm, reaching a 32° C. temperature (Skubatz et al., 1991, Plant Physiol. 95-1084-1088). The heat generated by the appendix is generated by the mitochondria. This mitochondrial activity can be triggered by the addition of phenolic compounds, including but not limited to, salicylic acid, aspirin, and 2,6-dihydroxybenzoic acid. Test agents can be applied to the plant and the plant's temperature may be monitored in vivo.
FIG. 6 illustrates modulation of heat generated by 2,6-dihydroxybenzoic acid in the presence of the Alzheimer's peptide, Aβ 1-42, SEQ ID NO: 49 and a plant gene derived sequence in the Sauromatum guttatum appendix. One day before heat-production, sections of the appendix were placed in different solutions containing 2,6-dihydroxybenzoic acid (2,6-DHBA) with or without SEQ ID NO: 2 (FLPSEFGVDVDR) and SEQ ID NO: 51. Heat-production was monitored with thermocouples attached to the sections. A section placed in distilled water that was not generated any heat is the control (water). […] The temperature was recorded every 5 min. […] This figure illustrates that these peptides modulate thermogenicity in plants as well as animals and act as mitochondrial modulators.

opioid receptor = test: mechanism of action with Naloxone, antagonist of the opioid receptors (oral pain study); parameters: species or system rats; details: inferred from in vivo Naloxone co-administration, no binding test
Method: When Naloxene was administered with SEQ ID NO: 153 (Group 8), the effects of SEQ ID NO: 153 were reduced (compare Group 8 to Group 10) but unlike the case of Morphine (Group 3), not completely eliminated.

[6] = 20 min after oral treatment, co-administered ASA 1 mg/kg
[7] = 20 min after oral treatment, co-administered Naloxone 2 mg/kg
[8] = group later given Treatment 1 0.9% Saline + Treatment 2
[9] = group later given Treatment 1 ASA 1 mg/kg + Treatment 2
[10] = group later given Treatment 1 Naloxone 2 mg/kg + Treatment 2
[11] = group later given Treatment 1 0.9% Saline 2 mL/kg + oral Treatment 2 (morphine sulfate 3.7 mg/kg or peptide 100 mg/kg)
[12] = co-administered Naloxone 2 mg/kg

| Molecule | Withdrawal Response Post-Dose [1, 6] | Withdrawal Response Post-Dose [1, 7] [g] | Withdrawal Response Post-Surgery [1, 8] | Withdrawal Response Post-Surgery [1, 9] [g] | Withdrawal Response Post-Surgery [1, 10] [g] | Withdrawal Response Pre-Surgery [1, 11] [g] | Withdrawal Response Pre-Surgery [1, 9] [g] | Withdrawal Response Pre-Surgery [1, 10] [g] | Post-Dose change of pain threshold (arrow) [1, 12] | effect when administered with aspirin [1] | effect when administered with Naloxone [1] | effect on pain threshold [1] | systemic resistance to the virulent bacteria [4] | further results |
| --- | --- | --- | --- | --- | --- | --- | --- | --- | --- | --- | --- | --- | --- | --- |
| CN1CC[C@]23c4c5ccc(O)c4O[C@H]2[C@@H](O)C=C[C@H]3[C@H]1C5.O=S(=O)(O)O [Morphine sulfate, reference compound] | 5.5 ± 0.80 g | 3.5 ± 0.24 | 3.8 ± 0.52 g | 4.3 ± 0.41 | 3.7 ± 0.39 | 30.4 ± 3.29 | 21.9 ± 2.13 | 28.5 ± 4.53 | 0 | aspirin reduced the effects of Morphine | the effect of Morphine is eliminated | the pain threshold is increased |  | Withdrawal Response Post-Dose ([1]; 20 min after oral treatment at 180 min after surgery, Treatment 1 0.9% Saline 2 mL/kg, listed as Morphine, sulfate): 6.6 g; Withdrawal Response Post-Dose ([1]; 20 min after oral treatment at 180 min after surgery, Treatment 1 0.9% Saline 2 mL/kg, sulfate): 6.6 ± 1.58 g |
| CC(C)C[C@H](NC(=O)[C@@H](N)Cc1ccccc1)C(=O)N1CCC[C@H]1C(=O)N[C@@H](CO)C(=O)O [SEQ ID NO: 1, Phe-Leu-Pro-Ser] (H-FLPS-OH; N-terminus and C-terminus assumed) |  |  |  |  |  |  |  |  |  |  |  |  |  | feeding behavior [2]: did not invoke an abnormal feeding behavior; solubility in saline [3]: soluble |
| O=C(O)c1ccccc1O [salicylic acid] |  |  |  |  |  |  |  |  |  |  |  |  | enough to trigger systemic resistance |  |
| FLPSEFGVDVDR [SEQ ID NO: 2] |  |  |  |  |  |  |  |  |  |  |  |  |  | heat generation by the peptide [5]: did not generate heat |
| SPLF [SEQ ID NO: 153] | 5.7 g and 5.7 ± 0.56 g | 4.7 ± 0.45 | 4.5 g and 4.5 ± 0.32 g | 4.7 ± 0.56 | 4.5 ± 0.55 | 28.1 ± 3.02 | 29.2 ± 3.21 | 29.3 ± 4.00 | 0 | improved effect | reduced | increases the pain threshold |  | binding to the opioid receptor relative to Morphine and Naloxone (opioid receptor): binds to the opioid receptor more tightly than Morphine, but less tightly than Naloxene; Withdrawal Response Post-Dose ([1]; 20 min after oral treatment at 180 min after surgery, Treatment 1 0.9% Saline 2 mL/kg): 5.0 g and 5.0 ± 0.41 g; Post-Dose change of pain threshold (arrow) ([1]; Treatment 1 0.9% Saline 2 mL/kg): 0 |
| YGGFL [SEQ ID NO: 15] |  |  |  |  |  |  |  |  |  |  |  |  | enough to trigger systemic resistance |  |
